PubChem BioAssay AID330 (DTP/NCI, 2004)
Where “and” joins values, the source holds several entries; their conditions need not be identical. Identical values can stand only once. Inconclusive results and toxic doses are left out.

Tested on: P388 leukemia ip, CD2F1 mice, survival T/C
Assay: NCI In Vivo Anticancer Drug Screen. Data for tumor model P388 Leukemia (intraperitoneal) in CD2F1 (CDF1) mice
Details: endpoint: median survival time, higher = longer survival
Method in brief: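 Mice carrying the transplanted tumor received test compound or vehicle. Survival was recorded in each group, and the value is the treated-group measurement divided by that of the vehicle-treated control group.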

[1] = dose: 50.0 mg/kg/injection, schedule: Q01DX005 (ip), vehicle: Klucel (hydroxypropylcellulose) (HPC)
[2] = dose: 100.0 mg/kg/injection, schedule: Q01DX005 (ip), vehicle: Klucel (hydroxypropylcellulose) (HPC)
[3] = dose: 200.0 mg/kg/injection, schedule: Q01DX005 (ip), vehicle: Klucel (hydroxypropylcellulose) (HPC)
[4] = dose: 60.0 mg/kg/injection, schedule: Q01DX005 (ip), vehicle: Klucel (hydroxypropylcellulose) (HPC)
[5] = dose: 120.0 mg/kg/injection, schedule: Q01DX005 (ip), vehicle: Klucel (hydroxypropylcellulose) (HPC)
[6] = dose: 50.0 mg/kg/injection, schedule: Q04DX003 (ip), vehicle: saline with Tween-80
[7] = dose: 100.0 mg/kg/injection, schedule: Q04DX003 (ip), vehicle: saline with Tween-80
[8] = dose: 200.0 mg/kg/injection, schedule: Q04DX003 (ip), vehicle: saline with Tween-80
[9] = dose: 400.0 mg/kg/injection, schedule: Q04DX003 (ip), vehicle: saline with Tween-80
[10] = dose: 12.5 mg/kg/injection, schedule: Q01DX009 (ip), vehicle: saline with Tween-80
[11] = dose: 25.0 mg/kg/injection, schedule: Q01DX009 (ip), vehicle: saline with Tween-80
[12] = dose: 50.0 mg/kg/injection, schedule: Q01DX009 (ip), vehicle: saline with Tween-80
[13] = dose: 50.0 mg/kg/injection, schedule: Q01DX009 (ip), vehicle: saline
[14] = dose: 100.0 mg/kg/injection, schedule: Q01DX009 (ip), vehicle: saline with Tween-80
[15] = dose: 100.0 mg/kg/injection, schedule: Q01DX009 (ip), vehicle: saline
[16] = dose: 25.0 mg/kg/injection, schedule: Q01DX009 (ip), vehicle: saline
[17] = dose: 200.0 mg/kg/injection, schedule: Q01DX009 (ip), vehicle: saline
[18] = dose: 12.5 mg/kg/injection, schedule: Q01DX009 (ip), vehicle: Klucel (hydroxypropylcellulose) (HPC)
[19] = dose: 25.0 mg/kg/injection, schedule: Q01DX009 (ip), vehicle: Klucel (hydroxypropylcellulose) (HPC)
[20] = dose: 50.0 mg/kg/injection, schedule: Q01DX009 (ip), vehicle: Klucel (hydroxypropylcellulose) (HPC)
[21] = dose: 100.0 mg/kg/injection, schedule: Q01DX009 (ip), vehicle: Klucel (hydroxypropylcellulose) (HPC)
[22] = dose: 100.0 mg/kg/injection, schedule: Q04DX003 (ip), vehicle: Klucel (hydroxypropylcellulose) (HPC)
[23] = dose: 200.0 mg/kg/injection, schedule: Q04DX003 (ip), vehicle: Klucel (hydroxypropylcellulose) (HPC)
[24] = dose: 400.0 mg/kg/injection, schedule: Q04DX003 (ip), vehicle: Klucel (hydroxypropylcellulose) (HPC)
[25] = dose: 200.0 mg/kg/injection, schedule: Q01DX009 (ip), vehicle: Klucel (hydroxypropylcellulose) (HPC)

## CC(=O)OC1=C(C)C2=C3OC(=O)C(C)=C3CC[C@@]2(C)[C@@H](Cl)[C@@H]1Cl
dose: 25.0 mg/kg/injection, schedule: Q01DX005 (ip), vehicle: Klucel (hydroxypropylcellulose) (HPC)
  T/C: 104 % of control and 113 % of control
[1]
  T/C: 104 % of control and 108 % of control and 111 % of control
[2]
  T/C: 114 % of control and 117 % of control and 121 % of control
[3]
  T/C: 108 % of control and 119 % of control and 120 % of control

## c1ccc2c(C3CCCN4CCCCC34)c[nH]c2c1 (stereo not given)
dose: 12.5 mg/kg/injection, schedule: Q04DX002 (ip), vehicle: saline with Tween-80
  T/C: 105 % of control
dose: 25.0 mg/kg/injection, schedule: Q04DX002 (ip), vehicle: saline with Tween-80
  T/C: 102 % of control
dose: 50.0 mg/kg/injection, schedule: Q04DX002 (ip), vehicle: saline with Tween-80
  T/C: 100 % of control

## N#CC1CCCC(C#N)N1Cc1ccccc1 (stereo not given)
[4]
  T/C: 110 % of control
[5]
  T/C: 106 % of control

## CCNc1ccc(F)cc1[N+](=O)[O-]
[6]
  T/C: 100 % of control
[7]
  T/C: 100 % of control
[8]
  T/C: 86 % of control

## C/C(=C\C(=O)O)CC(=O)O
[7]
  T/C: 92 % of control
[8]
  T/C: 97 % of control
[9]
  T/C: 88 % of control

## CC(CN(C)C)C(=O)c1ccccc1 (stereo not given)
dose: 6.25 mg/kg/injection, schedule: Q01DX009 (ip), vehicle: saline with Tween-80
  T/C: 113 % of control
[10]
  T/C: 112 % of control
[11]
  T/C: 120 % of control
[12]
  T/C: 114 % of control
[13]
  T/C: 99 % of control
[14]
  T/C: 117 % of control
[15]
  T/C: 99 % of control

## COc1ccc2[nH]c(=O)oc(=O)c2c1
[16]
  T/C: 100 % of control
[13]
  T/C: 96 % of control
[15]
  T/C: 107 % of control
[17]
  T/C: 107 % of control

## Cc1cc(Cl)ccc1S(=O)(=O)Cl
[12]
  T/C: 104 % of control
[14]
  T/C: 103 % of control

## CC(NC1=NCCO1)c1cccc2ccccc12 (stereo not given)
dose: 12.5 mg/kg/injection, schedule: Q04DX003 (ip), vehicle: saline with Tween-80
  T/C: 100 % of control
dose: 25.0 mg/kg/injection, schedule: Q04DX003 (ip), vehicle: saline with Tween-80
  T/C: 95 % of control
[6]
  T/C: 100 % of control

## CCOc1nc(N)nc(C)c1N=Nc1cccc(Cl)c1
dose: 60.0 mg/kg/injection, schedule: Q01DX005 (ip), vehicle: Klucel + Tween-80
  T/C: 101 % of control
dose: 120.0 mg/kg/injection, schedule: Q01DX005 (ip), vehicle: Klucel + Tween-80
  T/C: 107 % of control
dose: 240.0 mg/kg/injection, schedule: Q01DX005 (ip), vehicle: Klucel + Tween-80
  T/C: 100 % of control

## CC(Br)CN(CC(C)Br)c1ccc(-c2ccccc2)cc1 (stereo not given)
[18]
  T/C: 154 % of control
[19]
  T/C: 164 % of control
[20]
  T/C: 176 % of control and 181 % of control
[21]
  T/C: 184 % of control

## Cc1ccc(S(=O)(=O)C23N=NC(C)(C)C2C2CC3C3CN=NC32)cc1 (stereo not given)
dose: 100.0 mg/kg/injection, schedule: Q01DX001 (ip), vehicle: Klucel (hydroxypropylcellulose) (HPC)
  T/C: 103 % of control
dose: 200.0 mg/kg/injection, schedule: Q01DX001 (ip), vehicle: Klucel (hydroxypropylcellulose) (HPC)
  T/C: 109 % of control
dose: 400.0 mg/kg/injection, schedule: Q01DX001 (ip), vehicle: Klucel (hydroxypropylcellulose) (HPC)
  T/C: 102 % of control

## CCOC(=O)Cn1ncnn1
[22]
  T/C: 103 % of control
[23]
  T/C: 100 % of control
[24]
  T/C: 102 % of control

## CN(C)c1nc(N/N=C\C(O)C(O)C(O)C(O)CO)nc(N(C)C)n1 (stereo not given)
[7]
  T/C: 112 % of control
[8]
  T/C: 103 % of control
[9]
  T/C: 102 % of control

## Cc1ccc(C(=O)N=Nc2c(Cl)c(O)c3ccccc3c2O)cc1
[1]
  T/C: 103 % of control
[2]
  T/C: 99 % of control
[3]
  T/C: 103 % of control

## CCN(CC)CCNC(=O)c1noc2cc([N+](=O)[O-])ccc12
dose: 12.5 mg/kg/injection, schedule: Q01DX005 (ip), vehicle: saline
  T/C: 109 % of control
dose: 25.0 mg/kg/injection, schedule: Q01DX005 (ip), vehicle: saline
  T/C: 115 % of control
dose: 50.0 mg/kg/injection, schedule: Q01DX005 (ip), vehicle: saline
  T/C: 103 % of control and 97 % of control

## COc1cc(Cl)ccc1NC(=O)Oc1cc(C)c(I)cc1C
[12]
  T/C: 104 % of control
[14]
  T/C: 100 % of control
dose: 200.0 mg/kg/injection, schedule: Q01DX009 (ip), vehicle: saline with Tween-80
  T/C: 88 % of control

## c1ccc(Cc2cc(-c3ccccc3)[nH]c2-c2ccccc2)cc1
[13]
  T/C: 100 % of control
[15]
  T/C: 104 % of control
[17]
  T/C: 90 % of control

## CN(C)CC1CC1N1c2ccccc2Sc2ccc(Cl)cc21 (stereo not given)
[19]
  T/C: 99 % of control
[20]
  T/C: 101 % of control and 112 % of control
[21]
  T/C: 101 % of control and 112 % of control

## COc1ccc2c(c1)C1CN(Cc3ccccc31)C2 (stereo not given)
dose: 100.0 mg/kg/injection, schedule: Q01DX001 (ip), vehicle: saline with Tween-80
  T/C: 99 % of control

## Clc1nc(Cl)nc(-c2cn(-c3ccccc3)c3ccccc23)n1
[10]
  T/C: 100 % of control
[11]
  T/C: 90 % of control
[12]
  T/C: 100 % of control

## CCCCN1C(=O)C(CC(=O)OCC)SC1=S (stereo not given)
[4]
  T/C: 95 % of control
[5]
  T/C: 97 % of control
dose: 240.0 mg/kg/injection, schedule: Q01DX005 (ip), vehicle: Klucel (hydroxypropylcellulose) (HPC)
  T/C: 97 % of control

## CCCNC(=S)N/N=C(/C)c1nccc2ccccc12
[22]
  T/C: 108 % of control
[23]
  T/C: 101 % of control
[24]
  T/C: 99 % of control

## COC(=O)C(C/C(=C/NC(=O)c1ccccc1)NC(=O)c1ccccc1)NC(=O)c1ccccc1 (stereo not given)
dose: 50.0 mg/kg/injection, schedule: Q01DX005 (ip), vehicle: saline with Tween-80
  T/C: 98 % of control
dose: 100.0 mg/kg/injection, schedule: Q01DX005 (ip), vehicle: saline with Tween-80
  T/C: 98 % of control
dose: 200.0 mg/kg/injection, schedule: Q01DX005 (ip), vehicle: saline with Tween-80
  T/C: 100 % of control

## C[Si](C)(C)N1CCCC1
[16]
  T/C: 105 % of control
[13]
  T/C: 89 % of control
[15]
  T/C: 90 % of control
[17]
  T/C: 107 % of control

## NC(=Nc1ccccc1)N(c1ccccc1)c1ccc([N+](=O)[O-])cc1
dose: 7.5 mg/kg/injection, schedule: Q01DX009 (ip), vehicle: saline with Tween-80
  T/C: 92 % of control
dose: 15.0 mg/kg/injection, schedule: Q01DX009 (ip), vehicle: saline with Tween-80
  T/C: 100 % of control
dose: 30.0 mg/kg/injection, schedule: Q01DX009 (ip), vehicle: saline with Tween-80
  T/C: 91 % of control

## COc1cc(NC(C)=O)c2ncccc2c1NC(C)=O
[1]
  T/C: 99 % of control
[2]
  T/C: 96 % of control
[3]
  T/C: 87 % of control

## O=C1C2CCC(C2)C1CN1CCCCC1 (stereo not given)
dose: 6.25 mg/kg/injection, schedule: Q01DX005 (ip), vehicle: saline with Tween-80
  T/C: 101 % of control
dose: 12.5 mg/kg/injection, schedule: Q01DX005 (ip), vehicle: saline with Tween-80
  T/C: 98 % of control
dose: 25.0 mg/kg/injection, schedule: Q01DX005 (ip), vehicle: saline with Tween-80
  T/C: 103 % of control

## O=C(CSc1nc(-c2ccccc2)c(-c2ccccc2)o1)N1CCOCC1
[18]
  T/C: 105 % of control
[19]
  T/C: 105 % of control
[20]
  T/C: 106 % of control and 110 % of control
[21]
  T/C: 107 % of control and 120 % of control
[25]
  T/C: 110 % of control

## CCN(CC)CC.[CH-]1CCCCC1.[CH-]1CCCCC1.[CH-]1CCCCC1.[Cl-].[I-].[Sn+4]
dose: 1.5 mg/kg/injection, schedule: Q01DX005 (ip), vehicle: Klucel (hydroxypropylcellulose) (HPC)
  T/C: 96 % of control
dose: 3.0 mg/kg/injection, schedule: Q01DX005 (ip), vehicle: Klucel (hydroxypropylcellulose) (HPC)
  T/C: 98 % of control
dose: 6.0 mg/kg/injection, schedule: Q01DX005 (ip), vehicle: Klucel (hydroxypropylcellulose) (HPC)
  T/C: 100 % of control and 93 % of control

## Clc1ccc(Cl)c(NNc2cc(Cl)ccc2Cl)c1
[19]
  T/C: 96 % of control
[20]
  T/C: 91 % of control
[21]
  T/C: 87 % of control
[25]
  T/C: 102 % of control
